The values that follow come from ChEMBL document CHEMBL1149804, “Bioactivity of novel transition metal complexes of N'-[(4-methoxy)thiobenzoyl]benzoic acid hydrazide” (Eur J Med Chem, 2008).

The structures appear in SMILES notation.

One assay deals with HT-29. The assay can be described thus: Antiproliferative activity against human HT29 cells after 48 hrs by MTT assay. Type of assay: functional, cell-based. Particulars: HT-29, 48 h. In general terms: Tetrazolium assays rely on reduction of a dye to a coloured formazan, in cell work by metabolically active cells.
The nature of assay [1]: Inhibition of human recombinant N-myristoyltransferase.

As usually defined, the IC50 is the concentration that gives 50% inhibition. Regarding `COc1ccc(C(=S)NNC(=O)c2ccccc2)cc1`, the IC50 turned out to be 90.9 µM with HT-29 and 3200 µM in assay [1].
